The values below come from patent publication US5670546A, “N-Arylalkylphenylacetamide derivatives” (Korean Research Institute of Chemical Technology, priority 1995, dated 1997).

Molecules are shown by their SMILES.

Data set [1] has as its system KTC-ICR mice. Kind of data set: phenyl-1,4-benzoquinone (PBQ) induced writhing test (analgesic effect). In kind it is in vivo. As to conditions: Mus musculus, ip; PBQ induced writhing; 50% reduction of writhings vs control group; mice 14 to 18 g; read-out: ED50 PBQ. The method, then:
(§1) Physiological activities of the compounds obtained in Examples 1 to 11 were measured by employing acetic acid or phenyl-1,4-benzoquinone(PBQ) induced writhing test.
(§2) The KTC-ICR mice provided by Experimental Animal Laboratory of Korea Research Institute of Chemical Technology were used as test animals. […] They were tested in a group consisting of 8 mice for each dosage of a test compound after having been adjusted to the testing environment for a week. Food and water were given freely; and illumination was maintained on a 12-hour cycle.
(§3) Test solutions were prepared by dissolving one of the final products obtained in Examples 1 to 11 in distilled water containing 1% of Tween and 5% ethanol in a pre-determined concentration. The test solutions were used after serial dilution depending on each dosage.
(§4) The test solutions were intraperitoneally administered in a dose of 0.1 ml per 10 g of a body weight. 0.1 ml of 1% acetic acid solution or 0.1 ml of 0.02% PBQ solution was administered after 60 minutes in case of oral administration or after 30 minutes in case of subcutaneous injection.
(§5) Then, the number of writhings generated during a period of 10 minutes after 3 minutes from the administration of acetic acid was measured. In case of the administration of PBQ, the number of writhings generated during a period of 5 minutes after 5 minutes from the administration was measured.
(§6) For a comparison purpose, initially, distilled water containing 1% of Tween and 5% ethanol alone was administered to the control group. Then, the control groups were subjected the same procedure as the test groups.
(§7) The number of writhings suffered by the test group was compared with that of the control group; and the analgesic effect was measured in terms of the percentage of inhibition of writhing(I. W.). [formula] wherein: A is the number of writhings suffered by the control group; and
(§8) B is the number of writhings suffered by the test group.
(§9) I.W. values for each dosage were calculated by employing regression analysis. The amount of a test compound which is required in reducing the frequency of writhings to the 50% level of that generated by the control group, i.e., B=0.5A or I.W.=50%, is designated as ED50 (mg/kg of a body weight). Therefore, a lower value of ED50 represents a higher analgesic effect of the tested compound.

Data set [2] concerns KTC-ICR mice. As to the kind of experiment: acetic acid induced writhing test (analgesic effect). As to conditions: Mus musculus, ip; acetic acid induced writhing; 50% reduction of writhings vs control group; mice 20 to 25 g; read-out: ED50 acetic acid. It counts as in vivo. As for the experimental part:
as §1, §2, §3, §4, §5, §6, §7, §8, §9

A further data set concerns test animals. Kind of data set: toxicity test: behavioral changes in the test animals observed by the naked eye. The note with it: score; for Convulsion / Salivation / Urination: normal value 0; for Dyspnoea / Ptosis / Sedation / Vasodilation: normal value 4. In kind it is in vivo, KTC-ICR mice. Details: key to Convulsion / Salivation / Urination: score; normal value 0, higher number = greater side effects. As for the experimental part: In order to monitor a harmful side-effect or toxicity of the present compounds, various behavioral changes in the test animals were observed. After the test and the control solutions were administered to the animals, symptoms such as sedation, ptosis, dyspnoea, vasodilation, convulsion, salivation and urination were observed by the naked eye and the level of such changes was represented by a numbering system: that is, the normal value of the last three behaviors(i.e., urination, convulsion and salivation) is 0; and that of the others(i.e., sedation, ptosis, dyspnoea and vasodilation) is 4. The higher the number is, the greater the side effects are.

Consider `COc1cc(CC(=O)NCCCc2ccc(C)c(C)c2)ccc1OCCNCCO` [Example 2, N-{3-(3,4-dimethylphenyl)propyl}-4-[2-{N-(2-hydroxyethyl)}aminoethoxy]-3-methoxy phenylacetamide], for which, in the data set on KTC-ICR mice [1], the ED50 was found to be 0.83 mg/kg. Further, the ED50 in the data set with KTC-ICR mice [2] came to 0.3 mg/kg. In the data set with test animals (Amount 0.25 mgg), the Convulsion was found to be 0, the Salivation was 0, the Urination is recorded as 0 and the Dyspnoea was 4. Besides, in the data set with test animals (Amount 0.25 mgg), the Ptosis is given as 4, the Sedation was 4 and the Vasodilation turned out to be 4. In the data set on test animals (Amount 0.5 mgg), this molecule returned a Convulsion of 0, a Salivation of 0, a Urination of 0 and a Dyspnoea of 4. In the data set on test animals (Amount 0.5 mgg), this molecule registered a Ptosis of 5, a Sedation of 5 and a Vasodilation of 4. In the data set with test animals (Amount 1 mgg), the Convulsion is 0, the Salivation is given as 0, the Urination is recorded as 0 and the Dyspnoea is recorded as 5. Further, in the data set with test animals (Amount 1 mgg), the Ptosis is 6, the Sedation is 6 and the Vasodilation turned out to be 5.
